In ChEMBL document CHEMBL1201862, “PubChem BioAssay data set” (2004):
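The compound was tested at five concentrations on cells cultured in 96-well plates, with a 48-hour exposure period. Here, GI50 denotes the concentration required for 50% inhibition of growth.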 Active and inactive are the calls of the source. Cut-off read from the data, not from the text of the source: active = GI50 up to about 1.1 µM and inactive = higher.

Legend:
Test in all cases: DTP human tumour cell line panel, 48 h
SNB-19 = test system: SNB-19
A498 = test system: A498
HCT-15 = test system: HCT-15
SR = test system: SR
MDA-MB-231 = test system: MDA-MB-231
SN12C = test system: SN12C
SW-620 = test system: SW-620
Malme-3M = test system: Malme-3M
786-0 = test system: 786-0
MDA-N = test system: MDA-N
SK-MEL-5 = test system: SK-MEL-5
UACC-62 = test system: UACC-62
OVCAR-4 = test system: OVCAR-4
CCRF-CEM = test system: CCRF-CEM
NCI-H226 = test system: NCI-H226
M14 = test system: M14
Hs-578T = test system: Hs-578T
UACC-257 = test system: UACC-257

Compound	GI50 (SNB-19)	GI50 (A498)	GI50 (HCT-15)	GI50 (SR)	GI50 (MDA-MB-231)	GI50 (SN12C)	GI50 (SW-620)	GI50 (Malme-3M)	GI50 (786-0)	GI50 (MDA-N)	GI50 (SK-MEL-5)	GI50 (UACC-62)	GI50 (OVCAR-4)	GI50 (CCRF-CEM)	GI50 (NCI-H226)	GI50 (M14)	GI50 (Hs-578T)	GI50 (UACC-257)
O=[N+]([O-])C1CC/C(=N/O)c2nonc21 (stereo not given)	> 10 µM (inactive)	> 10 µM (inactive)	> 10 µM	> 10 µM (inactive)	> 10 µM (inactive)	> 10 µM (inactive)	> 10 µM (inactive)	> 10 µM (inactive)	> 10 µM (inactive)	> 10 µM (inactive)	> 10 µM (inactive)	> 10 µM (inactive)	> 10 µM (inactive)	> 10 µM (inactive)	> 10 µM (inactive)	> 10 µM (inactive)	> 10 µM (inactive)	> 10 µM (inactive)
OC(CCN1CCN(CCOC(c2ccc(F)cc2)c2ccc(F)cc2)CC1)c1ccccc1 (stereo not given)	16.9 µM (inactive)	5.06 µM (inactive)	13.6 µM	5.48 µM (inactive)	14.6 µM (inactive)	15.2 µM (inactive)	22.8 µM (inactive)	13.4 µM (inactive)	12.9 µM (inactive)	15.1 µM (inactive)	7.6 µM (inactive)	14.5 µM (inactive)	16.1 µM (inactive)	19 µM (inactive)	15 µM (inactive)	14.7 µM (inactive)	16 µM (inactive)	16.2 µM (inactive)
Cc1ccc2nc(/C=N/c3ccc(Cl)cc3)cc(C)c2c1	27.6 µM (inactive)	> 80.4 µM (inactive)	0.027 µM	1.88 µM (inactive)	4.94 µM (inactive)	5.21 µM (inactive)	2.07 µM (inactive)	2.44 µM (inactive)	10.6 µM (inactive)	1.3 µM (inactive)	2.29 µM (inactive)	0.133 µM (active)	20.3 µM (inactive)	1.06 µM (active)	18.4 µM (inactive)	0.212 µM (active)	15.8 µM (inactive)	4.38 µM (inactive)
CCCCCNC(=O)c1cc2cc(CCl)ccc2oc1=O	15.9 µM (inactive)	1.86 µM (inactive)	1.95 µM	5.38 µM (inactive)	1.97 µM (inactive)	1.72 µM (inactive)	> 49.7 µM (inactive)	2.36 µM (inactive)	1.34 µM (inactive)	9.42 µM (inactive)	16.6 µM (inactive)	2.45 µM (inactive)	7.23 µM (inactive)	> 100 µM (inactive)	14.2 µM (inactive)	9.12 µM (inactive)	6.37 µM (inactive)	2.04 µM (inactive)
CCOC(=O)/C=C(/C(=O)OCC)n1cc(C)c(=O)[nH]c1=O	17.3 µM (inactive)	12.9 µM (inactive)	2.04 µM	1.92 µM (inactive)	4.51 µM (inactive)	5.06 µM (inactive)	2.01 µM (inactive)	2.29 µM (inactive)	2.49 µM (inactive)	5.83 µM (inactive)	8.81 µM (inactive)	5.14 µM (inactive)	4.93 µM (inactive)	1.37 µM (inactive)	5.46 µM (inactive)	1.95 µM (inactive)	17.7 µM (inactive)	12.9 µM (inactive)
Cc1ccc(NC(=O)c2ccc(OP(=O)(O)Nc3ccc(C)cc3)cc2)cc1	> 100 µM (inactive)	> 100 µM (inactive)	> 100 µM	> 100 µM (inactive)	> 100 µM (inactive)	> 100 µM (inactive)	> 100 µM (inactive)	> 100 µM (inactive)	> 100 µM (inactive)	> 100 µM (inactive)	> 100 µM (inactive)	> 100 µM (inactive)	> 100 µM (inactive)	> 100 µM (inactive)	> 100 µM (inactive)	64.4 µM (inactive)	92.7 µM (inactive)	> 100 µM (inactive)
O=C(Nc1ccn(C2CCC(COC(c3ccccc3)(c3ccccc3)c3ccccc3)O2)c(=O)n1)c1ccccc1 (stereo not given)	5.66 µM (inactive)	5 µM (inactive)	4.18 µM	2.34 µM (inactive)	5.87 µM (inactive)	1.88 µM (inactive)	4.94 µM (inactive)	3.18 µM (inactive)	2.64 µM (inactive)	3.57 µM (inactive)	2.78 µM (inactive)	5.5 µM (inactive)	2.82 µM (inactive)	3.28 µM (inactive)	6.9 µM (inactive)	3.48 µM (inactive)	3.54 µM (inactive)	6.81 µM (inactive)
CCCCn1c2c(n(CCCC)c1=S)-c1c(n(CCCC)c(=S)n1CCCC)SSc1c(n(CCCC)c(=S)n1CCCC)-c1c(n(CCCC)c(=S)n1CCCC)SSc1c(n(CCCC)c(=S)n1CCCC)-c1c(n(CCCC)c(=S)n1CCCC)SS2	11.4 µM (inactive)	> 50 µM (inactive)	7.64 µM	1.88 µM (inactive)	2.24 µM (inactive)	2.8 µM (inactive)	1.69 µM (inactive)	1.57 µM (inactive)	3.56 µM (inactive)	7.41 µM (inactive)	12 µM (inactive)	3.37 µM (inactive)	1.73 µM (inactive)	1.19 µM (inactive)	10 µM (inactive)	13.4 µM (inactive)	3.25 µM (inactive)	2.98 µM (inactive)
CO[C@H]1O[C@@H]2OC3(C)CCC4[C@H](C)CCC([C@H]1C)[C@]42OO3 (stereo not given in full)	> 100 µM (inactive)	> 100 µM (inactive)	> 100 µM	56.2 µM (inactive)	> 100 µM (inactive)	> 100 µM (inactive)	> 100 µM (inactive)	> 100 µM (inactive)	> 100 µM (inactive)	> 100 µM (inactive)	38 µM (inactive)	> 100 µM (inactive)	> 100 µM (inactive)	19.1 µM (inactive)	> 100 µM (inactive)	> 100 µM (inactive)	> 100 µM (inactive)	> 100 µM (inactive)
Cc1cc(C)c2c(O)cc(-c3ccc4ccccc4c3)nc2n1	30.9 µM (inactive)	3.9 µM (inactive)	6.1 µM	5.98 µM (inactive)	23.1 µM (inactive)	43.7 µM (inactive)	15.2 µM (inactive)	21.6 µM (inactive)	39.8 µM (inactive)	3.34 µM (inactive)	2.7 µM (inactive)	14.7 µM (inactive)	14.6 µM (inactive)	11.6 µM (inactive)	19.5 µM (inactive)	17.3 µM (inactive)	16.4 µM (inactive)	21.2 µM (inactive)
C=C(C)[C@@H](C(=O)OC)N1C(=O)c2ccccc2C1=O	> 100 µM (inactive)	> 100 µM (inactive)	> 100 µM	> 100 µM (inactive)	> 100 µM (inactive)	> 100 µM (inactive)	> 100 µM (inactive)	> 100 µM (inactive)	> 100 µM (inactive)	> 100 µM (inactive)	> 100 µM (inactive)	> 100 µM (inactive)	> 100 µM (inactive)	> 100 µM (inactive)	> 100 µM (inactive)	> 100 µM (inactive)	> 100 µM (inactive)	> 100 µM (inactive)
COC(=O)/C=C(/C)n1nc2ccccc2n1	> 100 µM (inactive)	77.3 µM (inactive)	> 100 µM	> 100 µM (inactive)	> 100 µM (inactive)	> 100 µM (inactive)	> 100 µM (inactive)	> 100 µM (inactive)	> 100 µM (inactive)	> 100 µM (inactive)	> 100 µM (inactive)	> 100 µM (inactive)	> 100 µM (inactive)	> 100 µM (inactive)	> 100 µM (inactive)	> 100 µM (inactive)	> 100 µM (inactive)	> 100 µM (inactive)
OC(COc1ccccc1)CN1CCCCC1 (stereo not given)	> 100 µM (inactive)	> 100 µM (inactive)	> 100 µM	> 100 µM (inactive)	> 100 µM (inactive)	> 100 µM (inactive)	> 100 µM (inactive)	> 100 µM (inactive)	> 100 µM (inactive)	> 100 µM (inactive)	> 100 µM (inactive)	> 100 µM (inactive)	> 100 µM (inactive)	> 100 µM (inactive)	> 100 µM (inactive)	> 100 µM (inactive)	> 100 µM (inactive)	> 100 µM (inactive)
C=C1C(=O)OC2CC(C)C(/C=C/C(C)=O)=CCC12 (stereo not given)	> 100 µM (inactive)	> 100 µM (inactive)	> 100 µM	57.9 µM (inactive)	> 100 µM (inactive)	> 100 µM (inactive)	61.8 µM (inactive)	10.7 µM (inactive)	26.4 µM (inactive)	> 100 µM (inactive)	71.8 µM (inactive)	> 100 µM (inactive)	> 100 µM (inactive)	40 µM (inactive)	> 100 µM (inactive)	> 100 µM (inactive)	> 100 µM (inactive)	> 100 µM (inactive)
CC1(C)C2CC(=O)C1(C)C(OCc1ccccc1)C2 (stereo not given)	88.3 µM (inactive)	> 100 µM (inactive)	26.8 µM	25.1 µM (inactive)	44 µM (inactive)	36.6 µM (inactive)	29.6 µM (inactive)	32.9 µM (inactive)	70 µM (inactive)	47.3 µM (inactive)	26.3 µM (inactive)	62.5 µM (inactive)	–	26.1 µM (inactive)	> 100 µM (inactive)	24.8 µM (inactive)	22 µM (inactive)	74 µM (inactive)
COc1ccccc1N/C(=C\C(=O)C(=O)NC12CC3CC(CC(C3)C1)C2)c1ccccc1	–	> 10 µM (inactive)	> 10 µM	> 10 µM (inactive)	> 10 µM (inactive)	> 10 µM (inactive)	> 10 µM (inactive)	3.36 µM (inactive)	> 10 µM (inactive)	> 10 µM (inactive)	> 10 µM (inactive)	–	9.82 µM (inactive)	> 10 µM (inactive)	> 10 µM (inactive)	> 10 µM (inactive)	> 10 µM (inactive)	9.46 µM (inactive)
